Experimental data published in patent publication US11274074B2, “Pharmaceutical composition for ANO1 antagonist with anticancer activity” (INDUSTRY-ACADEMIC COOPERATION FOUNDATION, YONSEI UNIVERSITY, priority 2018, dated 2022).

Legend:
[1] = Stability in mouse plasma (LC-MS/MS); format: in vitro ADME; settings: for half-life at 5 μM: mouse, 37° C.
ANO1 = ANO1 (Homo sapiens (Human), UniProt Q5XXA6); assay: Selective inhibition of ANO1 over ANO2 (Table 1), ANO1 IC50; format: cell-based
ANO2 [2] = target: T1, ANO2 (Homo sapiens (Human), UniProt Q9NQ90); assay: Selective inhibition of ANO1 over ANO2 (Table 1), ANO2 IC50; format: cell-based
T1 sequence (Q9NQ90 other isoform, or with tags, fused parts or gaps, species assumed): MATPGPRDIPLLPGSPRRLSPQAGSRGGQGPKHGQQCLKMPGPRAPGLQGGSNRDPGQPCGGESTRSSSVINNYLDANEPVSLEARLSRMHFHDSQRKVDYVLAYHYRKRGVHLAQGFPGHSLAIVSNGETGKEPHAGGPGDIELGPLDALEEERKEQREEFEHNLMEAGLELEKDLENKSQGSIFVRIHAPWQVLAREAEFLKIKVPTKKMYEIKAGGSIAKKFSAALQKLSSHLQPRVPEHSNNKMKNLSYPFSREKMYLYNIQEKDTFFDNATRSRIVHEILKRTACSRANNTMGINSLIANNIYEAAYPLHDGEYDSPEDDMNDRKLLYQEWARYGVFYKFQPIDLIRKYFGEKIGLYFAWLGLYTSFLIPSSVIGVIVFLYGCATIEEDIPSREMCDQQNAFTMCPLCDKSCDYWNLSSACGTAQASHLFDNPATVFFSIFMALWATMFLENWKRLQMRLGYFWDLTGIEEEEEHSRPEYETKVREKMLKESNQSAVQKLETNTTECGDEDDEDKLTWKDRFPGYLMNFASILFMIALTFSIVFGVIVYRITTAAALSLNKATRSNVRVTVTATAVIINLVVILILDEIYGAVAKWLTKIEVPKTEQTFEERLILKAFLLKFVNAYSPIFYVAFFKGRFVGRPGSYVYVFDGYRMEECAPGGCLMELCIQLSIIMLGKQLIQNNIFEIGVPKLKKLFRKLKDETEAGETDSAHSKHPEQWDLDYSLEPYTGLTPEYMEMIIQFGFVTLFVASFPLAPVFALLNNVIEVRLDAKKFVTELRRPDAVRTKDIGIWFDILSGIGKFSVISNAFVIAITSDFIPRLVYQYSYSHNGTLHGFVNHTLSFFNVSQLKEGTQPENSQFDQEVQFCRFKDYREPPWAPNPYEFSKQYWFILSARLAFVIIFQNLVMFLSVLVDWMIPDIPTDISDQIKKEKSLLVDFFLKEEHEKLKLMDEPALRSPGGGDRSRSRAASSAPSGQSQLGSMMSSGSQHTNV

[3] = test system: PC-3 cells highly expressing ANO1; assay: MTS cell viability, PC-3 cells highly expressing ANO1; format: cell-based; settings: MTS assay, 24 hours
Experimental: (§1) The cell viability was determined by the MTS assay (mean±S.E., n=4; * P<0.05, ** P<0.01, *** P<0.001).
(§2) 24 hours later, after adding 20 μL of an MTS solution to each well and culturing at 37° C. for 30 minutes under 5% CO2, absorbance was measured at 490 nm using a microplate reader.
(§3) In FIG. 2B, PC-3 cells were treated with the [Chemical Formula 5] compound at different concentrations in the same manner as in FIG. 2A. […] After adding 20 μL of an MTS solution to each well and culturing at 37° C. for 30 minutes under 5% CO2, absorbance was measured at 490 nm using a microplate reader.

MCF7 breast cancer cells = assay: MTS cell viability, MCF7 breast cancer cells highly expressing ANO1; format: cell-based; settings: MTS assay, 24 hours
Experimental: (§4) The cell viability was determined by the MTS assay (mean±S.E., n=4).
as §2

[4] = test system: PC-3 cells not expressing ANO1; assay: MTS cell viability, PC-3 cells not expressing ANO1; format: cell-based; settings: MTS assay, 24 hours
Experimental: as §1, §2, §3

[5] = test system: BxPC3 pancreatic cancer cells; assay: MTS cell viability, BxPC3 pancreatic cancer cells highly expressing ANO1; format: cell-based; settings: MTS assay, 24 hours
Experimental: as §4, §2

human WT-CFTR = human WT-CFTR (Homo sapiens (Human), UniProt P13569); assay: Short-circuit current in FRT cells expressing CFTR; format: cell-based
Sequence of human WT-CFTR (P13569 whole entry): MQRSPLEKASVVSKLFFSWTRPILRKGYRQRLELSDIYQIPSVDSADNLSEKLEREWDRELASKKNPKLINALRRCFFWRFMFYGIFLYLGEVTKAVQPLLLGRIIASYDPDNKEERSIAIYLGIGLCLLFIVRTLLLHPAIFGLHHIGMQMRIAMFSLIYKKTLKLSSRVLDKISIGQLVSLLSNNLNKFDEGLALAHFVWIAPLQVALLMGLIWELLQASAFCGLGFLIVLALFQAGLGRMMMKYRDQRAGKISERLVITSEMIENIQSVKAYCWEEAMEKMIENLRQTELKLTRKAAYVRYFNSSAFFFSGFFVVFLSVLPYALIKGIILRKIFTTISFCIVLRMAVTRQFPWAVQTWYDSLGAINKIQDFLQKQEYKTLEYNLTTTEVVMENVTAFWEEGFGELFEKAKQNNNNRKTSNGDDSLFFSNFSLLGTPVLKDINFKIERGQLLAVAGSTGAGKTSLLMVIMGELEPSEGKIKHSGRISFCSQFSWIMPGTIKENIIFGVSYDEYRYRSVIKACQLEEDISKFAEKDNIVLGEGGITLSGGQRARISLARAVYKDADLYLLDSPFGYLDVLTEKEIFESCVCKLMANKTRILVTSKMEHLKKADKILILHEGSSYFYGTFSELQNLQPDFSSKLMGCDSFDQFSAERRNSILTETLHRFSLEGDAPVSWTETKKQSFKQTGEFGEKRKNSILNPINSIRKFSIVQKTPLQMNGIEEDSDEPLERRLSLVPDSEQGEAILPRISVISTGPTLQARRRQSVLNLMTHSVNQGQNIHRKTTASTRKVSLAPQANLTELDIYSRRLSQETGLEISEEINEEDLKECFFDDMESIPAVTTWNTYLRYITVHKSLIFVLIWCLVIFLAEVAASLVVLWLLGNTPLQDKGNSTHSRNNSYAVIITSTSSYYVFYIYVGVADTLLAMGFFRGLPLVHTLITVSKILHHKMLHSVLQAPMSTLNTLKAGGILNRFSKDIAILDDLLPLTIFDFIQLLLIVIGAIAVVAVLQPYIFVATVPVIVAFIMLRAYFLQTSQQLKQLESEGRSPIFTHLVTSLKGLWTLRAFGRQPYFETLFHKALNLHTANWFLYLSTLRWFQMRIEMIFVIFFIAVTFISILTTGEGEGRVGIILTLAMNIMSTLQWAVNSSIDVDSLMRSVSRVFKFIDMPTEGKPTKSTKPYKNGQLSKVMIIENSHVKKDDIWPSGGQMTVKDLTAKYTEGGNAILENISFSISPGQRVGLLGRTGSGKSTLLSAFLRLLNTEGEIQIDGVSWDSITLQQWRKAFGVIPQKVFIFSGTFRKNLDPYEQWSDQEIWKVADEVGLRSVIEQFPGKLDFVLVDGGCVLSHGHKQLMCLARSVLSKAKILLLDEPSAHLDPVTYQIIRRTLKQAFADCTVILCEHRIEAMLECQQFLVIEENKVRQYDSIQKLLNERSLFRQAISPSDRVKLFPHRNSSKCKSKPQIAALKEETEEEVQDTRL

ANO1 (TMEM16A) = ANO1 (TMEM16A) (Homo sapiens (Human), UniProt Q5XXA6); assay: Short-circuit current (apical membrane current) in FRT cells expressing ANO1; format: cell-based
Sequence of ANO1 (TMEM16A) (Q5XXA6 whole entry, species assumed): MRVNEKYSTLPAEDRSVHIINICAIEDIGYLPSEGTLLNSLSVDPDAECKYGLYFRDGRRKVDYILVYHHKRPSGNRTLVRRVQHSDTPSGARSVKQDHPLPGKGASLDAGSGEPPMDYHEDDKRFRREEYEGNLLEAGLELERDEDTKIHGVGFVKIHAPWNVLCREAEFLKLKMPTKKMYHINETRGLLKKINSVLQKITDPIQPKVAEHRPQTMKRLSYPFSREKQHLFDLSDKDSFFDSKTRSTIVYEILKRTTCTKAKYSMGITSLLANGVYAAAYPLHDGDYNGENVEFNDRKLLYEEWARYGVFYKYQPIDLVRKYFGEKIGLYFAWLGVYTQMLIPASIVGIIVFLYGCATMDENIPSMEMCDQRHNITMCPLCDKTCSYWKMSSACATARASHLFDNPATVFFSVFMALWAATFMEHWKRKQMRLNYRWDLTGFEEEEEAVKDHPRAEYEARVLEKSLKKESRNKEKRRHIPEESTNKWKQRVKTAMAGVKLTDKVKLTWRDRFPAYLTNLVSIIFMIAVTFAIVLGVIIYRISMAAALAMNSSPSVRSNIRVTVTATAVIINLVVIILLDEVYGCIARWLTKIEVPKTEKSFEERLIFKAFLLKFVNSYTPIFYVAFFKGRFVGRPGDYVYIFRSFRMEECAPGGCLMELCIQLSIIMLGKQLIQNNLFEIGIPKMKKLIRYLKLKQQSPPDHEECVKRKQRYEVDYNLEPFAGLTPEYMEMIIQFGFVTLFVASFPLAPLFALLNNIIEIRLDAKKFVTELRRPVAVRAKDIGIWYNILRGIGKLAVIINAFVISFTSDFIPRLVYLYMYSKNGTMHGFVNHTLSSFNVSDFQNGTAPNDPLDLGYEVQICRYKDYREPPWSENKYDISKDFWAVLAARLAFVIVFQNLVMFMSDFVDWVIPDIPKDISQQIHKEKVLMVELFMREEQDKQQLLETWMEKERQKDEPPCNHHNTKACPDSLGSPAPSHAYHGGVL
Experimental: Specifically, Fischer rat thyroid (FRT) cells expressing ANO1 were differentiated by culturing in DMEM/Ham's F12 medium in Transwell for 5 days and then short-circuit current was measured using an Ussing chamber. Then, a regular HCO^3− solution (120 mM NaCl, 5 mM KCl, 1 mM MgCl2, 2.5 mM HEPES, 1 mM CaCl2, 10 mM glucose, 25 mM NaHCO3) was added to a basolateral bath of the Ussing chamber, and a luminal bath was stabilized for 20 minutes by creating a Cl^− gradient by maintaining at 70 mM Cl^−. Then, after treating with the [Chemical Formula 5] compound at different concentrations (0, 0.003, 0.01, 0.03, 0.1, 0.3, 1.0 μM) and carrying out reaction for 20 minutes, ATP (100 μM) was added and the inhibitory effect for Cl^− secretion was measured through ANO1 activity.

ANO2 [6] = target: T1, ANO2; assay: Short-circuit current in FRT cells expressing ANO2; format: cell-based
[7] = test system: ANO1 protein in PC-3 cells; assay: Western blot of ANO1 protein level in PC-3 cells expressing ANO1 at high level; format: cell-based; settings: for decrease of the expression level of ANO1: PC-3 cells
[8] = test system: smooth muscle of the mouse ileum; assay: Contraction of smooth muscle using mouse ileal section

Sequence of ANO1 (Q5XXA6 whole entry, species assumed): as above

| Molecule | IC50 (ANO1) [µM] | IC50 (ANO2 [2]) [µM] | other results |
| --- | --- | --- | --- |
| COc1ccccc1/C=N/NC(=O)COc1ccc(Cl)cc1C [Ani9, reference compound] |  |  | plasma stability [1]: low; half-life at 5 μM [1]: 0.533 h |
| COc1ccccc1/C=N/NC(=O)c1cc2cc(Cl)ccc2o1 [Comparative Example 1] | > 100 | > 100 |  |
| COc1ccccc1-c1nnc(-c2cc3cc(Cl)ccc3o2)o1 [Comparative Example 2] | > 100 | > 100 |  |
| COc1cccc(/C=N/NC(=O)COc2ccc(Cl)cc2C)c1 [Comparative Example 3] | > 100 |  |  |
| COc1cccc(-c2nnc(COc3ccc(Cl)cc3C)o2)c1 [Comparative Example 4] | > 100 | > 100 |  |
| Cc1cc(Cl)ccc1OCC(=O)N/N=C/c1cccc(F)c1 [Comparative Example 5] | > 100 |  |  |
| Cc1cc(Cl)ccc1OCc1nnc(-c2cccc(F)c2)o1 [Comparative Example 6] | > 100 | > 100 |  |
| Cc1cc(Cl)ccc1OCc1nnc(-c2ccccc2C(F)(F)F)o1 [Comparative Example 7] | > 100 | > 100 |  |
| Cc1cc(Cl)ccc1OCc1nnc(-c2ccccc2OC(F)(F)F)o1 [Comparative Example 8] | > 100 |  |  |
| Cc1cc(Cl)ccc1OCC(=O)N/N=C/c1cccc(OC(F)(F)F)c1 [Comparative Example 9] | > 100 |  | effect on cell viability of PC-3 cells highly expressing ANO1 [3]: insignificant effect; effect on cell viability of MCF7 breast cancer cells highly expressing ANO1 (MCF7 breast cancer cells): insignificant effect; effect on cell viability of PC3 cells not expressing ANO1 [4]: insignificant effect; ANO1 inhibitory activity (in words) (ANO1): not to inhibit ANO1; effect on cell viability of BxPC3 pancreatic cancer cells highly expressing ANO1 [5]: insignificant effect |
| Cc1cc(Cl)ccc1OCc1nnc(-c2cccc(OC(F)(F)F)c2)o1 [Comparative Example 10] | > 100 |  |  |
| Cc1cc(Cl)ccc1OCc1nnc(-c2ccccn2)o1 [Comparative Example 11] | > 100 |  |  |
| CCOC(=O)c1cc2ccccn2c1/C=N/NC(=O)COc1ccc(Cl)cc1C [Comparative Example 12] | > 100 | > 100 |  |
| Cc1cc(Cl)ccc1OCC(=O)N/N=C1/C(=O)N(C)c2ccccc21 [Comparative Example 13] | > 100 |  |  |
| Cc1cc(Cl)ccc1OCC(=O)N/N=C1\CCOc2ccccc21 [Comparative Example 14] | > 100 |  |  |
| Cc1cc(Cl)ccc1OCC(=O)Nc1nc2ccccc2s1 [Comparative Example 15] | > 100 | > 100 |  |
| COC(=O)c1sc(NC(=O)COc2ccc(Cl)cc2C)nc1C [Comparative Example 16] | > 100 |  |  |
| Cc1cc(Cl)ccc1OC(C)C(=O)N/N=C/c1ccccc1OC(F)(F)F (stereo not shown) [Comparative Example 17] | > 100 |  |  |

| Molecule | IC50 (ANO1) [µM] | IC50 (ANO2 [2]) [µM] | other results |
| --- | --- | --- | --- |
| Cc1cc(Cl)ccc1OC(C)(C)C(=O)N/N=C/c1ccccc1OC(F)(F)F [Comparative Example 18] |  | > 100 |  |
| Cc1cc(Cl)ccc1OC(F)(F)C(=O)N/N=C/c1ccccc1OC(F)(F)F [Comparative Example 19] | > 100 | > 100 |  |
| Cc1cc(Cl)ccc1OCC(=O)N/N=C/c1ccccc1OC(F)(F)F [Example 1] | 0.021 ± 0.005 |  | inhibition of the activity of CFTR (human WT-CFTR; 100 μM, forskolin-activated CFTR): did not inhibit; plasma stability [1]: higher stability in the mouse plasma than Ani9; half-life at 5 μM [1]: 1.73 h; inhibition of ANO1 activity as compared to Ani9 (ANO1 (TMEM16A)): ≥ 4 times; IC50 (ANO1 (TMEM16A); FRT cells expressing ANO1, short-circuit current, ATP 100 μM): 0.022 µM; effect on cell viability of PC-3 cells highly expressing ANO1 [3]: selectively inhibited the growth of the PC-3 cells highly expressing ANO1 in a concentration-dependent manner; effect on cell viability of MCF7 breast cancer cells highly expressing ANO1 (MCF7 breast cancer cells): selectively inhibited the growth; ANO1 inhibitory activity (in words) (ANO1): strongest ANO1 inhibitory activity; inhibition at 100 µM (ANO2 [6]): 17.1%; reduction of ANO1 expression level as compared to Ani9 ([7]; 3 μM): about 11.5 times; decrease of the expression level of ANO1 ([7]; 3 μM): 59.8±4.6%; reduction of ANO1 expression level as compared to Ani9 ([7]; 10 μM): ~2.28 times; decrease of the expression level of ANO1 ([7]; 10 μM): 66.5±4.7%; effect on cell viability of BxPC3 pancreatic cancer cells highly expressing ANO1 [5]: selectively inhibited the growth; contraction frequency of smooth muscle [8]: no effect; contraction of smooth muscle of the mouse ileum [8]: strongly inhibited; decrease of maximum contraction intensity of smooth muscle ([8]; 300 nM): 53.3%; decrease of maximum contraction intensity of smooth muscle ([8]; 1 μM): 68.8% |
| COc1ccccc1CNNC(=O)COc1ccc(Cl)cc1C [Example 2] | 10.7 ± 0.14 | > 100 |  |
| COc1ccccc1-c1nnc(COc2ccc(Cl)cc2C)o1 [Example 3] | 19.4 ± 0.01 | 12.4 ± 0.05 |  |
| Cc1cc(Cl)ccc1OCc1nnc(-c2ccccc2F)o1 [Example 4] | 21.2 ± 0.17 | > 100 |  |
| Cc1cc(Cl)ccc1OCC(=O)N/N=C/c1ccccc1C(F)(F)F [Example 5] | 0.21 ± 0.04 |  |  |
| C/C(=N\NC(=O)COc1ccc(Cl)cc1C)c1ccccc1OC(F)(F)F [Example 6] | 0.3 ± 0.02 | > 100 | ANO1 inhibitory activity (in words) (ANO1): slightly weaker inhibitory activity than the compound of Example 1; reduction of ANO1 expression level as compared to Ani9 ([7]; 10 μM): about 1.21 times; decrease of the expression level of ANO1 ([7]; 10 μM): 28.9±0.9% |
| CCOC(=O)C(F)Oc1ccccc1/C=N/NC(=O)COc1ccc(Cl)cc1C (stereo not shown) [Example 7] | 15.7 ± 0.01 | 59.4 ± 0.45 |  |
| Cc1cc(Cl)ccc1OCC(=O)N/N=C/c1ccco1 [Example 8] | 25.7 ± 0.01 |  |  |
| Cc1cc(Cl)ccc1OCc1nnc(-c2ccco2)o1 [Example 9] | 63.8 ± 0.02 | > 100 |  |
| Cc1cc(Cl)ccc1OCC(=O)N/N=C/c1ccccn1 [Example 10] | 31.3 ± 0.57 | > 100 |  |
| COc1ccccc1CNC(=O)COc1ccc(Cl)cc1C [Example 11] | 20.6 ± 0.02 | 13.1 ± 0.07 |  |
| COc1cccc(CNC(=O)COc2ccc(Cl)cc2C)c1 [Example 12] | 53.7 ± 0.05 | > 100 |  |
| Cc1cc(Cl)ccc1OCC(=O)Nc1nc2cc(Cl)ccc2o1 [Example 13] | 14.2 ± 0.07 |  | reduction of ANO1 expression level as compared to Ani9 ([7]; 10 μM): ~2.05 times; decrease of the expression level of ANO1 ([7]; 10 μM): 48.8±2.9% |
| CCOC(=O)c1csc(NC(=O)COc2ccc(Cl)cc2C)n1 [Example 14] | 14.8 ± 0.01 | > 100 |  |
| CFTRinh-172 [reference compound] |  |  | inhibition of CFTR (human WT-CFTR; 10 μM): completely inhibited |
